In PMC6017322, “Triterpene Acids from Frankincense and Semi-Synthetic Derivatives That Inhibit 5-Lipoxygenase and Cathepsin G” (Molecules : A Journal of Synthetic Chemistry and Natural …, 2018):

What was measured:
[1] = target: T1, cathepsin G (Homo sapiens, UniProt P08311); experiment: Cathepsin G activity in a cell-free assay (Suc-AAPF-pNA substrate); assay type: biochemical; details: for inhibition of cathepsin G / inhibition at 10 µM: at 10 µM; for remaining activity at 10 µM / Cat. G Activity [% Control]: residual activity at 10 µM, mean ± SEM, 3–4 experiments; for remaining activity at 10 µM / IC50 / Cat. G Activity [% Control]: cell-free; for remaining activity at 10 µM: read-out: Cat. G Activity [% Control]; for IC50: purified cathepsin G from human neutrophils, read-out: Cat. G IC50 (converted)
T1 construct: purified cathepsin G (0.2 µg) from human neutrophils; purchased Calbiochem; host or cells: human neutrophils (natural source)
T1 sequence (P08311 21-244 limits assumed): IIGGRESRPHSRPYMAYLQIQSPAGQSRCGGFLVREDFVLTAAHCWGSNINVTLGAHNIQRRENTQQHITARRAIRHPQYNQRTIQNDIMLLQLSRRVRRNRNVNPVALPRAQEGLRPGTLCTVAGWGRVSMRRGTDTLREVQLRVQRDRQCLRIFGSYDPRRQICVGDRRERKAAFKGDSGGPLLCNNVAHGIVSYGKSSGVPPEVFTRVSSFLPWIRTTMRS
Experimental: Commercially available purified cathepsin G (0.2 µg) from human neutrophils (Calbiochem, La Jolla, CA, USA) was mixed with test compounds or DMSO (vehicle control) in 200 µL 0.1 M HEPES pH 7.4, 0.5 M NaCl, and 10% DMSO in a 96-well plate (Greiner Bio-One, Frickenhausen, Germany) and pre-incubated for 20 min at 25 °C. Then, N-Suc–Ala–Ala–Pro–Phe–pNA (Suc–AAPF–pNA) (1 mM) as substrate for cathespin G was added, and the absorbance was measured at 410 nm at 25 °C using a Victor^2 plate reader (PerkinElmer, Waltham, MA, USA).

[2] = target: T2, 5-LO (Homo sapiens, UniProt P09917); experiment: 5-LO activity in a cell-free assay (isolated human recombinant 5-LO, 20 µM arachidonic acid); assay type: biochemical; design: made in house; host or cells: Escherichia coli BL21 (pT3-5-LO plasmid); details: for remaining activity at 10 µM / 5-LO Activity [% Control] cell-free: residual activity at 10 µM, isolated 5-LO, 20 µM arachidonic acid, mean ± SEM, 3–4 experiments; for remaining activity at 10 µM: read-out: 5-LO Activity [% Control] cell-free
T2 sequence (P09917 1-674): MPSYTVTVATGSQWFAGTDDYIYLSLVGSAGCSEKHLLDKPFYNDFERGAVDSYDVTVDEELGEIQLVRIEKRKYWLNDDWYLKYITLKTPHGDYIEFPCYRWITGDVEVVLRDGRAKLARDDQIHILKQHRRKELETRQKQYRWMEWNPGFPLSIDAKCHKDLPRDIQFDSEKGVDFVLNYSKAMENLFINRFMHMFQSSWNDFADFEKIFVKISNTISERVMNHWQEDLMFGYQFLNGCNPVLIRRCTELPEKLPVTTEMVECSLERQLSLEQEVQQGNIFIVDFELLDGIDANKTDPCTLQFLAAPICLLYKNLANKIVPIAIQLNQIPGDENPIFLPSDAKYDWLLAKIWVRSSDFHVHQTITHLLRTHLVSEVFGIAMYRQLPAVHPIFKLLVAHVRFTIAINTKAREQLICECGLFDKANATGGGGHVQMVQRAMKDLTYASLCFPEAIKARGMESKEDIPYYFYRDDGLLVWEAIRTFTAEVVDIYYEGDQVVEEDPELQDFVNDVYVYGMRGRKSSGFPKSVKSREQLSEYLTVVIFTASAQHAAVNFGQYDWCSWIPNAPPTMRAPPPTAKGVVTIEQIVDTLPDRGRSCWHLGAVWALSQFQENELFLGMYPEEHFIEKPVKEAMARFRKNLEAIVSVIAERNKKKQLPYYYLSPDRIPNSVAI
Experimental: Human recombinant 5-LO was expressed in Eschericha coli BL21 transformed with pT3-5-LO plasmid at 30 °C overnight, as described elsewhere. Cells were lysed in lysis buffer containing triethanolamine (50 mM, pH 8.0), EDTA (5 mM), phenylmethanesulfonyl fluoride (1 mM), soybean trypsin inhibitor (60 µg/mL), dithiothreitol (2 mM), and lysozyme (1 mg/mL), and homogenized by sonification (3 × 15 s). 5-LO was then purified from 40,000× g supernatant (20 min, 4 °C) using an ATP-agarose column (Sigma-Aldrich, Deisenhofen, Germany), diluted with PBS buffer containing 1 mM EDTA, and immediately used for 5-LO activity assays.
To determine 5-LO activity, aliquots of purified 5-LO (0.5 µg 5-LO in 1 mL PBS plus 1 mM EDTA) were pre-incubated with the test compounds or vehicle (0.1% dimethyl sulfoxide, DMSO) on ice for 15 min, pre-warmed for 30 s at 37 °C in a water bath, and then stimulated with 20 µM AA and CaCl2 2 mM for 10 min at 37 °C. The reaction was stopped with one volume of ice-cold methanol and 5-LO products (including all-trans-isomers of LTB4 and 5-hydroperoxyeicosatetraenoic acid (5-HpETE), as well as its corresponding alcohol 5-hydroxyeicosatetraenoic acid (5-HETE)) were analyzed by reversed phase (RP)-HPLC (Elite LaChrom, VWR, Radnor, PA, USA) as previously described. In brief, acidified PBS and 200 ng of internal PGB1 standard were added and solid phase extraction using C18 RP-columns (100 mg, UCT, Bristol, PA, USA) was performed. After elution with methanol, samples were analyzed by RP-HPLC using a C-18 Radial-PAK column (Waters, Eschborn, Germany).

[3] = target: T2, 5-LO; experiment: 5-LO product formation in intact human neutrophils stimulated with A23187 (cell-based); design: 5-LO product formation in intact human neutrophils; endogenous in cells; host or cells: freshly isolated human peripheral blood neutrophils; details: for IC50: human neutrophils stimulated with A23187; for remaining activity at 10 µM: read-out: 5-LO Activity [% Control] cell-based
Experimental: Neutrophils were isolated from peripheral blood (University Hospital Tübingen, Germany), collected from fasted healthy adult donors that were informed about the aim of the study and gave written consent. Leukocyte concentrates were obtained by centrifugation (4000× g, 20 min, 20 °C) of heparinized blood preparation, and neutrophils were immediately isolated as described before. Briefly, leukocyte concentrates were subjected to dextran sedimentation and centrifuged on lymphocyte separation medium (LSM 1077, PAA, Coelbe, Germany). For isolation of pelleted neutrophils, remaining erythrocytes were removed by hypotonic lysis, washed twice with ice-cold phosphate-buffered saline (PBS) and finally resuspended in PBS buffer containing 0.1% glucose and CaCl2 (1 mM) (PGC buffer).
5-LO product formation in intact human neutrophils was performed using 5 × 10^6 freshly isolated cells that were resuspended in 1 mL PGC buffer. Cells were pre-incubated with the test compounds or vehicle (0.1% DMSO) at 37 °C for 15 min prior to stimulation with 2.5 µM Ca^2+-ionophore A23187 for 10 min (37 °C). 5-LO product formation was stopped by addition of one volume of ice-cold methanol, samples were subjected to solid phase extraction after addition of 200 ng PGB1 as internal standard, and 5-LO products (LTB4, its trans-isomers and 5-HETE) were analyzed by RP-HPLC as described above.

[4] = residual activity at 10 µM, human neutrophils, A23187, mean ± SEM, 3–4 experiments

inhibition of cathepsin G [1] | remaining activity at 10 µM [1] [%] | inhibition at 10 µM [2] [%] | remaining activity at 10 µM [2] [%] | remaining activity at 10 µM [3, 4] [%] | IC50 [1] [µM] | 5-LO Activity [% Control] cell-free [2] | Cat. G Activity [% Control] [1] | 5-LO Activity [% Control] cell-based [3, 4] | inhibition at 10 µM ([3]; at 10 µM, human neutrophils, read-out: inhibition of 5-LO activity in intact cells) [%] | SMILES | IC50 [3] [µM] | inhibition at 10 µM [1] [%]
 | 62.9 ± 6.6 | < 25 | 72.8 ± 7.1 | 18.3 ± 2.7 |  |  |  |  |  | C[C@H]1[C@H](C)CC[C@]2(C)CC[C@]3(C)C(=C[C@@H](O)[C@@H]4[C@@]5(C)CC[C@@H](O)[C@](C)(C(=O)O)[C@@H]5CC[C@]43C)[C@H]12 [compound 18, 11α-Hydroxy-β-boswellic acid] | 2.8 | 
 | 82.7 ± 9 | < 25 | 87.2 ± 1.8 | 58.2 ± 0.9 |  |  |  |  |  | C[C@H]1[C@H](C)CC[C@]2(C)CC[C@]3(C)C(=C[C@H](O)[C@@H]4[C@@]5(C)CC[C@@H](O)[C@](C)(C(=O)O)[C@@H]5CC[C@]43C)[C@H]12 [compound 19, 11β-hydroxy-β-boswellic acid] |  | 
 | 38.1 ± 6.4 |  |  | 77.3 ± 5.7 | 4.7 | n.i. |  |  |  | C[C@H]1[C@H](C)CC[C@]2(C)CC[C@]3(C)C(=CC[C@@H]4[C@@]5(C)CC[C@@H](OC(=O)C(=O)O)[C@](C)(C(=O)O)[C@@H]5CC[C@]43C)[C@H]12 [compound 20, 3-O-Oxaloyl-β-boswellic acid] |  | 
not active |  |  |  | 70.3 ± 6.9 |  | n.i. | n.i. |  |  | C[C@H]1[C@H](C)CC[C@]2(C)CC[C@]3(C)C(=CC(=O)[C@@H]4[C@@]5(C)CC[C@@H](OC(=O)C(=O)O)[C@](C)(C(=O)O)[C@@H]5CC[C@]43C)[C@H]12 [compound 21, 3-O-Oxaloyl-11-keto-β-boswellic acid] |  | 
 | 59.4 ± 7.6 |  | 85.9 ± 11.1 | 60.3 ± 8 |  |  |  |  |  | C[C@H]1[C@H](C)CC[C@]2(C)CC[C@]3(C)C(=CC[C@@H]4[C@@]5(C)CC[C@@H](OC(=O)CCC(=O)O)[C@](C)(C(=O)O)[C@@H]5CC[C@]43C)[C@H]12 [compound 22, 3-O-Succinoyl-β-boswellic acid] |  | 
not active |  |  | 75 ± 4.8 | 80.8 ± 6.8 |  |  | n.i. |  |  | C[C@H]1[C@H](C)CC[C@]2(C)CC[C@]3(C)C(=CC(=O)[C@@H]4[C@@]5(C)CC[C@@H](OC(=O)CCC(=O)O)[C@](C)(C(=O)O)[C@@H]5CC[C@]43C)[C@H]12 [compound 23, 3-O-Succinoyl-11-keto-β-boswellic acid] |  | 
 | 24.5 ± 1.7 |  |  | 65.3 ± 8 | 3.6 | n.i. |  |  |  | C[C@H]1[C@H](C)CC[C@]2(C)CC[C@]3(C)C(=CC[C@@H]4[C@@]5(C)CC[C@@H](OC(=O)CCCC(=O)O)[C@](C)(C(=O)O)[C@@H]5CC[C@]43C)[C@H]12 [compound 24, 3-O-Glutaroyl-β-boswellic acid] |  | 
 | 49.1 ± 11 |  |  |  | 8.6 | n.i. |  | n.i. |  | C[C@H]1[C@H](C)CC[C@]2(C)CC[C@]3(C)C(=CC(=O)[C@@H]4[C@@]5(C)CC[C@@H](OC(=O)CCCC(=O)O)[C@](C)(C(=O)O)[C@@H]5CC[C@]43C)[C@H]12 [compound 25, 3-O-Glutaroyl-11-keto-β-boswellic acid] |  | 
 | 28.8 ± 7.4 |  | 78.1 ± 7.4 | 57.6 ± 5.3 | 3.4 |  |  |  | 42 | C[C@H]1[C@H](C)CC[C@]2(C)CC[C@]3(C)C(=CC[C@@H]4[C@@]5(C)CC[C@@H](OCC(=O)O)[C@](C)(C(=O)O)[C@@H]5CC[C@]43C)[C@H]12 [compound 26, 3-O-Carboxymethyl-β-boswellic acid] |  | 
not active |  |  |  | 68.4 ± 2.1 |  | n.i. | n.i. |  |  | C[C@H]1[C@H](C)CC[C@]2(C)CC[C@]3(C)C(=CC(=O)[C@@H]4[C@@]5(C)CC[C@@H](OCC(=O)O)[C@](C)(C(=O)O)[C@@H]5CC[C@]43C)[C@H]12 [compound 27, 3-O-Carboxymethyl-11-keto-β-boswellic acid] |  | 

SMILES | inhibition of cathepsin G [1] | remaining activity at 10 µM [1] [%] | inhibition at 10 µM [2] [%] | remaining activity at 10 µM [2] [%] | remaining activity at 10 µM [3, 4] [%] | IC50 [1] [µM] | 5-LO Activity [% Control] cell-free [2] | Cat. G Activity [% Control] [1] | 5-LO Activity [% Control] cell-based [3, 4] | inhibition at 10 µM ([3]; at 10 µM, human neutrophils, read-out: inhibition of 5-LO activity in intact cells) [%] | IC50 [3] [µM] | inhibition at 10 µM [1] [%]
CC(C)=CCC[C@H](C(=O)O)[C@@H]1CC[C@]2(C)C3=C(CC[C@@]12C)[C@@]1(C)CC[C@H](O)C(C)(C)[C@@H]1CC3 [compound 15] | failed to markedly inhibit cathepsin G | 80.1 ± 6.2 | 36 | 64.1 ± 12.4 | 5.2 ± 1 |  |  |  |  |  | 3 | 
CC(C)=CCC[C@H](C(=O)O)[C@@H]1CC[C@]2(C)C3=C(CC[C@@]12C)[C@@]1(C)CCC(=O)C(C)(C)[C@@H]1CC3 [compound 16] |  | 53.1 ± 5.5 |  | 77.1 ± 8.7 | 37.8 ± 2.4 |  |  |  |  |  | 7.1 | 27 to 44
CC(=O)O[C@@H]1CC[C@]2(C)C3=C(CC[C@H]2C1(C)C)[C@@]1(C)CC[C@@H]([C@H](CCC=C(C)C)C(=O)O)[C@]1(C)CC3 [compound 17] |  | 66.7 ± 4.5 |  | 75.6 ± 3 | 75.5 ± 2.1 |  |  |  |  |  |  | 27 to 44
